US12485169B2, “Compounds” (GREY WOLF THERAPEUTICS LIMITED, priority 2018, dated 2025)
pIC50: −log10 of the molar value.

Target: T1, Purified ERAP1 (37-941)-10His (ERAP1) (Homo sapiens, UniProt Q9NZ08)
T1 construct: Purified ERAP1 (37-941)-10His (ERAP1)
Assay: ERAP1 mediated hydrolysis of an amide substrate (10-mer inhibition assay), biochemical system
Conditions: 10-mer substrate, 23° C., 1 h, excitation 279 nm / emission 355 nm; read-out: IC50 vs Decapeptide WRVYEKC(Dnp)ALK-acid (where Dnp is Dinitrophenyl maleimide) (10-mer)
Description: However, as ERAP1 hydrolyses the N-terminal amide bond and tryptophan is released this internal quenching is lost and the reaction is monitored by the increase in tryptophan fluorescence over the course of the assay. For the purposes of this application this assay is referred to as the “10mer inhibition assay” and compound potencies are calculated and expressed as IC50 as would be familiar to a person skilled in the art.
Biological Assay 1: ERAP1 Mediated Hydrolysis of an Amide Substrate Measured in a Biochemical System
Decapeptide WRVYEKC(Dnp)ALK-acid (where Dnp is Dinitrophenyl maleimide) (10-mer) L-Leucine 7-amido-4-methylcoumarin (L-AMC)
12.5 μL ERAP1 enzyme in 1×AB was combined with 250 nL test compound in DMSO. […] For detection, plates were read at excitation 365 nm and emission 442 nm (L-AMC) or excitation 279 nm and emission 355 nm (10-mer).

T1 sequence (Q9NZ08 37-941): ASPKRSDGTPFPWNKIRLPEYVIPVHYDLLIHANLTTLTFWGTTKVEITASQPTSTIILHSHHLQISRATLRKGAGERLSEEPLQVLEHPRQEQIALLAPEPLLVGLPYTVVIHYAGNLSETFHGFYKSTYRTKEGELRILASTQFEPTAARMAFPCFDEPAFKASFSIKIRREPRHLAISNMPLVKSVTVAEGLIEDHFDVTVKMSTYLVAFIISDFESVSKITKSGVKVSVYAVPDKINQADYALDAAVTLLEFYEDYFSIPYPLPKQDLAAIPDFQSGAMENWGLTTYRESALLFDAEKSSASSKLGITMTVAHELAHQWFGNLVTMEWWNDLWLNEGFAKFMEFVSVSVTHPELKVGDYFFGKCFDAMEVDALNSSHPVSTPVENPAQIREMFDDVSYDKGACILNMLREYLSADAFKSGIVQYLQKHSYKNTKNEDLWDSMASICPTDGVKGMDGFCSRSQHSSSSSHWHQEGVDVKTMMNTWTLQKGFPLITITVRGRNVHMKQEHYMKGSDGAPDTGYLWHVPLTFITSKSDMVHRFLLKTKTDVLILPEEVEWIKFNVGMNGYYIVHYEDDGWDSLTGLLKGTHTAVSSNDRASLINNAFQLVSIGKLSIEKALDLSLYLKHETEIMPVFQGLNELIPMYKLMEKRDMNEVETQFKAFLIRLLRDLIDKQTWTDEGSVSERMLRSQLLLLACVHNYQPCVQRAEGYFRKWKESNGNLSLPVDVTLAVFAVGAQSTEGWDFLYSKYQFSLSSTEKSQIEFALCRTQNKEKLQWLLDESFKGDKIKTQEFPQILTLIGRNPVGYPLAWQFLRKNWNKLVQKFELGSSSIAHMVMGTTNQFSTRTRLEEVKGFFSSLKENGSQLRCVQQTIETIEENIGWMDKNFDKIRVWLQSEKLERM

SMILES	pIC50
CCc1ccc(C(=O)O)cc1S(=O)(=O)Nc1cc(-c2cncs2)ccc1N1CCCCC1 [Example 275, 4-ethyl-3-(N-(2-(piperidin-1-yl)-5-(thiazol-5-yl)phenyl)sulfamoyl)benzoic acid]	> 6.30
CCc1ccc(C(=O)O)cc1S(=O)(=O)Nc1cc(-n2cnnn2)ccc1N1CCC[C@@H](F)C1 [Example 266, I-4-ethyl-3-(N-(2-(3-fluoropiperidin-1-yl)-5-(tetrazol-1-yl)phenyl)sulfamoyl)benzoic acid]	> 6.30
[2H]C1([2H])C([2H])([2H])C1([2H])c1ccc(C(=O)O)cc1S(=O)(=O)Nc1cc(C#N)ccc1N1CCCCC1 [Example 335, 3-(N-(5-cyano-2-(piperidin-1-yl)phenyl)sulfamoyl)-4-(cyclopropyl-d5)benzoic acid]	> 6.30
CCc1ccc(C(=O)O)cc1S(=O)(=O)Nc1cc(C(F)(F)F)ccc1N1CCCC[C@@H]1C [Example 240, (S)-4-ethyl-3-(N-(2-(2-methylpiperidin-1-yl)-5-(trifluoromethyl)phenyl)sulfamoyl)benzoic acid]	> 6.30
CS(=O)(=O)c1ccc(C(=O)O)cc1S(=O)(=O)Nc1cc(C(F)(F)F)ccc1N1CCCCC1 [Example 225, 4-(methylsulfonyl)-3-(N-(2-(piperidin-1-yl)-5-(trifluoromethyl)phenyl)sulfamoyl)benzoic acid]	< 5.30
CS(=O)(=O)c1ccc(N2CCCCC2)c(NS(=O)(=O)c2cc(C(=O)O)ccc2C2CC2)c1 [Example 296, 4-cyclopropyl-3-(N-(5-(methylsulfonyl)-2-(piperidin-1-yl)phenyl)sulfamoyl)benzoic acid]	> 6.30
CCc1ccc(C(=O)O)cc1S(=O)(=O)Nc1cc(C#N)ccc1N1CCC(F)CC1 [Example 318, 3-(N-(5-cyano-2-(4-fluoropiperidin-1-yl)phenyl)sulfamoyl)-4-ethylbenzoic acid]	> 6.30
CCc1ccc(C(=O)O)cc1S(=O)(=O)Nc1cc(C#N)ccc1N1CCCC(F)(F)C1 [Example 234, 3-(N-(5-cyano-2-(3,3-difluoropiperidin-1-yl)phenyl)sulfamoyl)-4-ethylbenzoic acid]	> 6.30
CC(C)c1ccc(C(=O)O)cc1S(=O)(=O)Nc1cc(C(F)(F)F)ccc1N1CCCCC1 [Example 3, 4-isopropyl-3-(N-(2-(piperidin-1-yl)-5-(trifluoromethyl)phenyl)sulfamoyl)benzoic acid]	> 6.30
CCOc1ccc(C(=O)O)cc1S(=O)(=O)Nc1cc(C(F)(F)F)ccc1N1CCCCC1 [Example 201, 4-ethoxy-3-(N-(2-(piperidin-1-yl)-5-(trifluoromethyl)phenyl)sulfamoyl)benzoic acid]	> 6.30
COc1ccc(C(=O)O)cc1S(=O)(=O)Nc1cc(C(F)(F)F)ccc1N1C[C@H]2CCCC[C@H]2C1 [Example 25, 4-methoxy-3-(N-(2-(cis-octahydroisoindol-2-yl)-5-(trifluoromethyl)phenyl)sulfamoyl)benzoic acid]	> 5.30
COc1ccc(-c2nn[nH]n2)cc1S(=O)(=O)Nc1cc(C(F)(F)F)ccc1N1CCCCC1 [Example 171, 2-methoxy-N-(2-(piperidin-1-yl)-5-(trifluoromethyl)phenyl)-5-(tetrazol-5-yl)benzenesulfonamide]	> 5.30
COc1ccc(C(=O)O)cc1S(=O)(=O)Nc1cc(Cl)ccc1N1CCCCC1 [Example 66, 3-(N-(5-chloro-2-(piperidin-1-yl)phenyl)sulfamoyl)-4-methoxybenzoic acid]	> 6.30
CCc1ccc(C(=O)O)cc1S(=O)(=O)Nc1cc(-c2c[nH]nn2)ccc1N1CCCCC1 [Example 298, 4-ethyl-3-(N-(2-(piperidin-1-yl)-5-(1,2,3-triazol-4-yl)phenyl)sulfamoyl)benzoic acid]	> 6.30
CCc1ccc(C(=O)O)cc1S(=O)(=O)Nc1cc(-c2cn[nH]c2)ccc1N1CCCCC1 [Example 301, 4-ethyl-3-(N-(2-(piperidin-1-yl)-5-(pyrazol-4-yl)phenyl)sulfamoyl)benzoic acid]	> 6.30
CCc1ccc(C(=O)O)cc1S(=O)(=O)Nc1cc(-c2cc[nH]n2)ccc1N1CCCCC1 [Example 276, 4-ethyl-3-(N-(2-(piperidin-1-yl)-5-(pyrazol-3-yl)phenyl)sulfamoyl)benzoic acid]	> 6.30
COc1ccc(C(=O)O)cc1S(=O)(=O)Nc1cc(C(F)(F)F)ccc1N1C[C@H](O)[C@@H](F)C1 (relative stereo) [Example 190, 3-(N-(2-(trans-3-fluoro-4-hydroxypyrrolidin-1-yl)-5-(trifluoromethyl)phenyl)sulfamoyl)-4-methoxybenzoic acid]	> 5.30
COc1ccc(C(=O)O)cc1S(=O)(=O)Nc1cc(C(F)(F)F)ccc1N1CC2(CCO2)C1 [Example 19, 3-(N-(2-(1-oxa-6-azaspiro[3.3]heptan-6-yl)-5-(trifluoromethyl)phenyl)sulfamoyl)-4-methoxybenzoic acid]	> 5.30

SMILES	pIC50
COc1ccc(C(=O)O)cc1S(=O)(=O)Nc1cc(C(F)(F)F)ccc1N1CC2CCC(C1)O2 [Example 7, 3-(N-(2-(8-oxa-3-azabicyclo[3.2.1]octan-3-yl)-5-(trifluoromethyl)phenyl)sulfamoyl)-4-methoxybenzoic acid]	> 5.30
COc1ccc(C(=O)O)cc1S(=O)(=O)Nc1cc(C(F)(F)F)ccc1N1CC2(CCCO2)C1 [Example 11, 3-(N-(2-(5-oxa-2-azaspiro[3.4]octan-2-yl)-5-(trifluoromethyl)phenyl)sulfamoyl)-4-methoxybenzoic acid]	> 5.30
COc1ccc(-c2nn[nH]n2)cc1NS(=O)(=O)c1cc(C(F)(F)F)ccc1N1CCCCC1 [Example 63, N-(2-methoxy-5-(tetrazol-5-yl)phenyl)-2-(piperidin-1-yl)-5-(trifluoromethyl) benzenesulfonamide]	> 5.30
Cc1ccc(C(=O)O)cc1S(=O)(=O)Nc1cc(C(F)(F)F)ccc1N1CCCOCC1 [Example 42, 3-(N-(2-(1,4-oxazepan-4-yl)-5-(trifluoromethyl)phenyl)sulfamoyl)-4-methylbenzoic acid]	< 5.30
COc1ccc(C(=O)O)cc1S(=O)(=O)Nc1cc(C(F)(F)F)ccc1N1CCCC(F)(F)C1 [Example 9, 3-(N-(2-(3,3-difluoropiperidin-1-yl)-5-(trifluoromethyl)phenyl)sulfamoyl)-4-methoxybenzoic acid]	> 6.30
COc1ccc(C(=O)O)cc1S(=O)(=O)Nc1cc(C#N)ccc1N1CCCCC1 [Example 182, 3-(N-(5-cyano-2-(piperidin-1-yl)phenyl)sulfamoyl)-4-methoxybenzoic acid]	> 6.30
CC(C)(O)c1ccc(C(=O)O)cc1S(=O)(=O)Nc1cc(C(F)(F)F)ccc1N1CCCCC1 [Example 228, 4-(2-hydroxypropan-2-yl)-3-(N-(2-(piperidin-1-yl)-5-(trifluoromethyl)phenyl)sulfamoyl)benzoic acid]	> 6.30
CCc1ccc(C(=O)O)cc1S(=O)(=O)Nc1cc(C(F)(F)F)ccc1N1CCC[C@@H](F)C1 [Example 211, I-4-ethyl-3-(N-(2-(3-fluoropiperidin-1-yl)-5-(trifluoromethyl)phenyl)sulfamoyl)benzoic acid]	> 6.30
COc1ccc(C(=O)O)cc1NS(=O)(=O)c1cc(C(F)(F)F)ccc1N1CCOCC1 [Example 52, 4-methoxy-3-((2-morpholino-5-(trifluoromethyl)phenyl)sulfonamido)benzoic acid]	> 5.30
CCc1ccc(C(=O)O)cc1S(=O)(=O)Nc1cc(S(C)(=O)=O)ccc1N1CCC(F)(F)CC1 [Example 308, 3-(N-(2-(4,4-difluoropiperidin-1-yl)-5-(methylsulfonyl)phenyl)sulfamoyl)-4-ethylbenzoic acid]	> 6.30
COc1ccc(C(=O)O)cc1S(=O)(=O)Nc1cc(C(F)(F)F)ccc1N1CCOCC1 [Example 72, 4-methoxy-3-(N-(2-morpholino-5-(trifluoromethyl)phenyl)sulfamoyl)benzoic acid]	> 6.30
COc1ccc(C(=O)O)cc1NS(=O)(=O)c1cc(C(F)(F)F)ccc1N1CCCCC1 [Example 49, 4-methoxy-3-((2-(piperidin-1-yl)-5-(trifluoromethyl)phenyl)sulfonamido)benzoic acid]	> 6.30
CCc1ccc(C(=O)O)cc1S(=O)(=O)Nc1cc(C(F)(F)F)ccc1N1C[C@H](C)C[C@H](C)C1 [Example 30]	> 6.30
CCc1ccc(C(=O)O)cc1S(=O)(=O)Nc1cc(C#N)ccc1N1CCC(F)(F)CC1 [Example 222, 3-(N-(5-cyano-2-(4,4-difluoropiperidin-1-yl)phenyl)sulfamoyl)-4-ethylbenzoic acid]	> 6.30
CCc1ccc(C(=O)O)cc1S(=O)(=O)Nc1cc(Cl)ccc1N1CCC(F)(F)CC1 [Example 217, 3-(N-(5-chloro-2-(4,4-difluoropiperidin-1-yl)phenyl)sulfamoyl)-4-ethylbenzoic acid]	> 6.30
CCc1ccc(C(=O)O)cc1S(=O)(=O)Nc1cc(-n2cnnn2)ccc1N1CC(O)C1 [Example 283, 4-ethyl-3-(N-(2-(3-hydroxyazetidin-1-yl)-5-(tetrazol-1-yl)phenyl)sulfamoyl)benzoic acid]	> 6.30
O=C(O)c1ccc(O)c(S(=O)(=O)Nc2cc(C(F)(F)F)ccc2N2CCCCC2)c1 [Example 161, 4-hydroxy-3-(N-(2-(piperidin-1-yl)-5-(trifluoromethyl)phenyl)sulfamoyl)benzoic acid]	> 6.30
